Results taken from patent EP0918774B9, “ANDROGEN RECEPTOR MODULATOR COMPOUNDS AND METHODS” (LIGAND PHARMACEUTICALS INCORPORATED, priority 1996, dated 1997).
Read-outs that look alike come from different tables or passages of the source.

How the values were obtained:
PR = target: T1, PR (Homo sapiens, UniProt P06401); test: Co-transfection assay, PR agonist mode; format: cell-based; parameters: expressed in transfected cells; host or cells: CV-1 cells
T1 sequence (P06401 1-933): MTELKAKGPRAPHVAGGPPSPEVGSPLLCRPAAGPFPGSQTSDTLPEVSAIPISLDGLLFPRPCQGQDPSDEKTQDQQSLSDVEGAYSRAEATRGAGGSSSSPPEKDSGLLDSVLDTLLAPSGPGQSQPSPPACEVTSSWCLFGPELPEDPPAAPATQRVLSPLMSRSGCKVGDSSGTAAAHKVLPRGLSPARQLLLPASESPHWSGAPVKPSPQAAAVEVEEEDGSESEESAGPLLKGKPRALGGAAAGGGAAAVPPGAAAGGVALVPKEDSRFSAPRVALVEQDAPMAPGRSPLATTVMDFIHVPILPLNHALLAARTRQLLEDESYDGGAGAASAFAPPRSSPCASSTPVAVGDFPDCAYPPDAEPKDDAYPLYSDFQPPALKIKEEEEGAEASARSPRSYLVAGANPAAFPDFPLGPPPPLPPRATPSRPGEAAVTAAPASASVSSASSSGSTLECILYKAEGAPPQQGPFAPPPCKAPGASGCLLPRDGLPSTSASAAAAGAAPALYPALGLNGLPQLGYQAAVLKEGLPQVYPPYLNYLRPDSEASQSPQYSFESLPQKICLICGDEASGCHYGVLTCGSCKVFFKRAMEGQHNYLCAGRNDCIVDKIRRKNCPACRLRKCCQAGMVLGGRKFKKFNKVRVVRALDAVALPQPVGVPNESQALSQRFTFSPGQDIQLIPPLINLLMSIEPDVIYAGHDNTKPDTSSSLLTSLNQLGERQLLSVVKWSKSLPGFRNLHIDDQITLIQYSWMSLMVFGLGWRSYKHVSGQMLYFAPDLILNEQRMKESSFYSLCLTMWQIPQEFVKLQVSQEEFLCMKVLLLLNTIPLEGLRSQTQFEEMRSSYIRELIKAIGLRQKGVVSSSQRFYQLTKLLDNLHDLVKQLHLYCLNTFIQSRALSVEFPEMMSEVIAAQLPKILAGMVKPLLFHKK
Method: (§1) CV-1 cells (African green monkey kidney fibroblasts) were cultured in the presence of Dulbecco's Modified Eagle Medium (DMEM) supplemented with 10% charcoal resinstripped fetal bovine serum then transferred to 96-well microtiter plates one day prior to transfection.
(§2) Three to four replicates were used for each sample.
(§3) After 40 hours, the cells were washed with PBS, lysed with a Triton X-100-based buffer and assayed for LUC and β-Gal activities using a luminometer or spectrophotometer, respectively. For each replicate, the normalized response (NR) was calculated as: LUC response/β-Gal rate where β-Gal rate = β-Gal•1x10^-5/β-Gal incubation time.

human AR [1] = target: T2, human AR (Homo sapiens, UniProt P10275); test: cell-based; format: cell-based
T2 construct: expressed in transfected cells; host or cells: CV-1 cells (African green monkey kidney fibroblasts), transient calcium phosphate transfection
T2 sequence (P10275 1-920): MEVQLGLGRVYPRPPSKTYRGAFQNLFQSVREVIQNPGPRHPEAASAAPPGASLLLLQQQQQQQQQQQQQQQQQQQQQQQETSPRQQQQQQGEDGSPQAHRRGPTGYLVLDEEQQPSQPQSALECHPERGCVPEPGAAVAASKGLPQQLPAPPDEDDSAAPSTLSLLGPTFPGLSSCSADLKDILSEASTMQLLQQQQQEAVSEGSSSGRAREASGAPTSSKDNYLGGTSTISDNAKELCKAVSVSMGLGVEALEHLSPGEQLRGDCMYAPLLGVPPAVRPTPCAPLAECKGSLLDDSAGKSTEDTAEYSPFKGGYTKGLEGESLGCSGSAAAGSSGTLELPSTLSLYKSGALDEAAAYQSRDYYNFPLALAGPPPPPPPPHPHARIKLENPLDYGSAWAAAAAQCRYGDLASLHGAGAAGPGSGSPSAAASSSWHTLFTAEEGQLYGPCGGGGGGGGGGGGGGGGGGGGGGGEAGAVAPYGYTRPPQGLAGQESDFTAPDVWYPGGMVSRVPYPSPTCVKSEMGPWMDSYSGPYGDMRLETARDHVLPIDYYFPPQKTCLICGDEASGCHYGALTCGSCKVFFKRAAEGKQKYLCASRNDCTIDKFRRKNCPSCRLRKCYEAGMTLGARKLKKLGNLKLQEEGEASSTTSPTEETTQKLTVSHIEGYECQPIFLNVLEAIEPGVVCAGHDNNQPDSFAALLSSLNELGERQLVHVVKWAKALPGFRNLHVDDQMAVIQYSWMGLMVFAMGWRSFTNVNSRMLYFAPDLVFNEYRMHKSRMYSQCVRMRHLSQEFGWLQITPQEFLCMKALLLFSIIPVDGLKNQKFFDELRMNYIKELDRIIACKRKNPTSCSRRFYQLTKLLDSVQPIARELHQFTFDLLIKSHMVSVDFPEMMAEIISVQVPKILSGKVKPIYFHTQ
Excerpt: The co-transfection assay provides a method for identifying functional agonists and partial agonists which mimic, or antagonists which inhibit, the effect of native hormones, and quantifying their activity for responsive IR proteins. In this regard, the co-transfection assay mimics an in vivo system in the laboratory. Importantly, activity in the co-transfection assay correlates very well with known in vivo activity, such that the co-transfection assay functions as a qualitative and quantitative predictor of a tested compounds in vivo pharmacology. See, e.g., T. Berger et al. 41 J. Steroid Biochem. Molec.
as §1
The reporter plasmid, MTV-LUC, contains the cDNA for firefly luciferase (LUC) under control of the mouse mammary tumor virus (MTV) long terminal repeat, a conditional promoter containing an androgen response element. See e.g, Berger et al. supra. In addition, pRS-β-Gal, coding for constitutive expression of E. colβ-galactosidase (β-Gal), was included as an internal control for evaluation of transfection efficiency and compound toxicity.
as §2, §3

ER [2] = target: T3, ER (Homo sapiens, UniProt P03372); test: Co-transfection assay, ER antagonist mode; format: cell-based
T3 construct: expressed in transfected cells; host or cells: CV-1 cells
T3 sequence (P03372 whole entry): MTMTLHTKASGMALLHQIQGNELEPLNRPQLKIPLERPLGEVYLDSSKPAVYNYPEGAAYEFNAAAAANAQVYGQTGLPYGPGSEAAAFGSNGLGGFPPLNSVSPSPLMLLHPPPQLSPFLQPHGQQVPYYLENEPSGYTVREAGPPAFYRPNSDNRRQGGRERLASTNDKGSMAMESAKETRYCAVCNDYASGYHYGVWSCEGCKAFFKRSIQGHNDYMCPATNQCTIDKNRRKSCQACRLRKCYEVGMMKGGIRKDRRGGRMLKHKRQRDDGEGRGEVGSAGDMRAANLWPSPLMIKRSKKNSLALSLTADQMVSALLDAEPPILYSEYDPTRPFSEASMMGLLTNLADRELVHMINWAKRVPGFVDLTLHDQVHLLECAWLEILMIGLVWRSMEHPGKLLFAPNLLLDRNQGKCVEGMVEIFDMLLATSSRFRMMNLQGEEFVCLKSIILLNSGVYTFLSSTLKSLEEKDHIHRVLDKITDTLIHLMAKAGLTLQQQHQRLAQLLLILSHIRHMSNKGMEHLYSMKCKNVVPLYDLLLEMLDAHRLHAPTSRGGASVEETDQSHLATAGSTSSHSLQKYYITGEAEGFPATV
Method: as §1, §2, §3

ER [3] = target: T3, ER; test: Co-transfection assay, ER agonist mode; format: cell-based
Method: as §1, §2, §3

human AR [4] = target: T2, human AR; test: cell-based; format: binding

Structure (SMILES)	EC50 (PR) [µM]	EC50 (human AR [1]) [µM]	IC50 (human AR [1]) [µM]	AR Antagonist CV-1 Cells Efficacy (%) (human AR [1]; % of maximal inhibition, fixed DHT at EC50, na = not active)	AR Agonist CV-1 Cells Efficacy (%) (human AR [1]; percent maximal response relative to reference agonist DHT, na = not active)	EC50 (human AR [1]; read-out: AR Potency Agon, Table 2, na = not active) [µM]	IC50 (ER [2]) [µM]	EC50 (ER [3]) [µM]	Ki (human AR [4]) [µM]	AR Agonist CV-1 Cells Efficacy (%) (human AR [1])	AR Antagonist CV-1 Cells Efficacy (%) (human AR [1])	EC50 (human AR [1]; read-out: AR Potency Agon) [µM]	Ki (human AR [4]; read-out: AR Binding Ki) [µM]
CC12CCCN1c1cc3[nH]c(=O)c(F)c(C(F)(F)F)c3cc1CC2 (racemic) [Compound 102, (R/S)-3-Fluoro-6,7,7a,11-tetrahydro-7a-methyl-4-trifluoromethyl-2-pyridono[5,6-g]pyrrolidino[1,2-a]quinoline]	> 10	> 10	0.029	86	na (not active (i.e. efficacy of <20 and potency of >10,000))	> 10	> 10	> 10	0.078	–	–	–	–
CC12CCCN1c1cc3nc(O)cc(C(F)(F)F)c3cc1CC2 (racemic) [Compound 101, (R/S)-6,7,7a,11-Tetrahydro-7a-methyl-4-trifluoromethyl-2-pyridono[5,6-g]pyrrolidino[1,2-a]quinoline]	> 10	> 10	0.362	–	–	–	> 10	> 10	–	na (key: na: not active (i.e. efficacy of <20 and potency of >10,000))	80	> 10	0.169
